Source: US4487927A, “3-Phosphonium and 3-phosphoranylidenecephems” (Fujisawa Pharmaceutical Co., Ltd., priority 1979, dated 1984)
Converted amounts (≈) assume the structure as drawn.

How the values were obtained:
[1] = system: Batilus subtilis ATCC 6633; assay: In vitro antimicrobial activity, two-fold agar-plate dilution method (MIC); format: cell-based; conditions: 37° C. for 20 hours, HI-agar; for MIC: 20 h, read-out: minimal inhibitory concentration (MIC)
Procedure: (§1) In vitro Antimicrobial activity was determined by the two-fold agar-plate dilution method as described below.
(§2) One loopful of an overnight culture of each test strain in Tripticase-soy broth (approximately 10^8 viable cells per ml) was streaked on heart infusion agar (HI-agar containing graded concentrations of antimicrobial agents, and the minimal inhibitory concentration (MIC) was expressed in term of μg/ml after incubation at 37° C. for 20 hours.

[2] = system: Staphylococcus aureus 209P JC-1; assay: as above; format: cell-based; conditions: 37° C. for 20 hours, HI-agar; for MIC: Staphylococcus aureus, 209P, 20 h, read-out: minimal inhibitory concentration (MIC)
Procedure: as §1, §2

Proteus vulgaris 2 = assay: as above; format: cell-based; conditions: 37° C. for 20 hours, HI-agar, read-out: minimal inhibitory concentration (MIC)
Procedure: as §1, §2

Proteus mirabilis 18 = assay: as above; format: cell-based; conditions: 37° C. for 20 hours, HI-agar, read-out: minimal inhibitory concentration (MIC)
Procedure: as §1, §2

Proteus mirabilis 1 = assay: as above; format: cell-based; conditions: 37° C. for 20 hours, HI-agar, read-out: minimal inhibitory concentration (MIC)
Procedure: as §1, §2

Escherichia coli 29 = assay: Protecting effect in experimental mice infection; format: in vivo, ICR strain; Escherichia coli; conditions: Escherichia coli 29 injected intraperitoneally; oral dose one hour after injection; 4 days observation; probit method
Source text: (3) Test 3: Protecting effect in experimental mice infection 4-weeks old male mice, ICR strain, each weighing 20.0±1.5 g. 1.3×10^4 cells of pathogenic microorganisms, suspended in 2.5% mucin, were intraperitoneally injected. One hour after the injection, Compound A was orally given.

[3] = Determination of serum levels after oral administration in rats (disc method); format: in vivo, SD strain; conditions: rat, 100 mg/kg orally, fasted male SD rats, read-out: Mean Serum Level
Procedure: (2) Test 2: Determination of serum levels after oral administration of anti-microbial agents in rats
6 weeks old male rats, SD strain, each weighing 160-230 g.
The test compound A (100 mg/kg) was given orally to rats which had been fasted overnight. At specified intervals, the rats were anethetized with chloroform and blood samples were collected from the heart. The anti-microbial levels in each serum sample were determined by the disc method using standard solutions prepared with serum from rats.

SMILES	MIC [1]	MIC [2]	MIC (Proteus mirabilis 18)	MIC (Proteus mirabilis 1)	other results
C=CC1=C(C(=O)O)N2C(=O)C(NC(=O)Cc3csc(N)n3)[C@H]2SC1 (stereo partly shown) [Compound H, 7-[2-(2-Aminothiazol-4-yl)acetamido]-3-vinyl-3-cephem-4-carboxylic acid]	–	–	–	–	minimal inhibitory concentration (MIC) [1]: 0.39 µg/mL (≈ 1.06 µM); minimal inhibitory concentration (MIC) [2]: 0.78 µg/mL (≈ 2.13 µM)
C=CC1=C(C(=O)O)N2C(=O)C(NC(=O)/C(=N\OC)c3csc(N)n3)C2SC1 (stereo not drawn) [Compound I, 7-[2-(2-Aminothiazol-4-yl)-2-methoxyiminoacetamido]-3-vinyl-3-cephem-4-carboxylic acid (syn isomer)]	–	–	< 0.025 µg/mL	0.05 µg/mL (≈ 0.122 µM)	–
C=CC1=C(C(=O)O)N2C(=O)C(NC(=O)[C@H](N)c3cccc(NS(C)(=O)=O)c3)[C@H]2SC1 (stereo partly drawn) [Compound A, 7-[2-(3-Methanesulfonamidophenyl)-D-glycinamido]-3-vinyl-3-cephem-4-carboxylic acid]	0.1 µg/mL (≈ 0.221 µM)	1.56 µg/mL (≈ 3.45 µM)	–	–	ED50 value (Escherichia coli 29): 0.480 mg/mouse; concentration at 1 h ([3]; 1 hour): 38500 ng/mL; concentration at 2 h ([3]; 2 hours): 34900 ng/mL; concentration at 4 h ([3]; 4 hours): 31000 ng/mL; concentration at 6 h ([3]; 6 hours): 28800 ng/mL
C=CC1=C(C(=O)O)N2C(=O)C(NC(=O)/C(=N\OCC(=O)OC[C@H](N)C(=O)O)c3csc(N)n3)C2SC1 (stereo partly drawn) [Compound L, 7-[2-(2-Aminothiazol-4-yl)-2-(L-2-amino-2-carboxyethoxycarbonylmethoxyimino)acetamido]-3-vinyl-3-cephem-4-carboxylic acid (syn isomer)]	–	–	0.05 µg/mL (≈ 0.0925 µM)	0.05 µg/mL (≈ 0.0925 µM)	–
C=CC1=C(C(=O)O)N2C(=O)C(NC(=O)/C(=N\OCCCC(=O)O)c3csc(N)n3)C2SC1 (stereo not drawn) [Compound P, 7-[2-(2-Aminothiazol-4-yl)-2-(3-carboxypropoxyimino)acetamido]-3-vinyl-3-cephem-4-carboxylic acid (syn isomer)]	–	–	0.05 µg/mL (≈ 0.104 µM)	0.1 µg/mL (≈ 0.208 µM)	MIC (Proteus vulgaris 2): < 0.025 µg/mL
C=CC1=C(C(=O)O)N2C(=O)C(NC(=O)/C(=N\OC/C=C/C(=O)O)c3csc(N)n3)C2SC1 (stereo not drawn) [Compound O, 7-[2-(2-Aminothiazol-4-yl)-2-(trans-3-carboxyallyloxyimino)acetamido]-3-vinyl-3-cephem-4-carboxylic acid (syn isomer)]	–	–	0.1 µg/mL (≈ 0.209 µM)	0.1 µg/mL (≈ 0.209 µM)	MIC (Proteus vulgaris 2): < 0.025 µg/mL
C=CC1=C(C(=O)O)N2C(=O)C(NC(=O)Cc3cnc(NC=O)s3)[C@H]2SC1 (stereo partly shown) [Compound D, 7-[2-(2-Formamidothiazol-5-yl)acetamido]-3-vinyl-3-cephem-4-carboxylic aci d]	0.2 µg/mL (≈ 0.507 µM)	0.39 µg/mL (≈ 0.989 µM)	–	–	–
C=CC1=C(C(=O)O)N2C(=O)C(NC(=O)/C(=N\OCC(=O)O)c3csc(N)n3)C2SC1 (stereo not drawn) [Compound M, 7-[2-(2-Aminothiazol-4-yl)-2-carboxymethoxyiminoacetamido]-3-vinyl-3-cephem-4-carboxylic acid (syn isomer)]	–	–	< 0.025 µg/mL	< 0.025 µg/mL	–
C=CC1=C(C(=O)O)N2C(=O)C(NC(=O)Cc3csc(N)n3)[C@H]2SC1 (stereo partly shown) [Compound B, 7-[2-(2-Aminothiazol-4-yl)acetamido]-3-vinyl-3-cephem-4-carboxylic acid]	–	1.56 µg/mL (≈ 4.26 µM)	–	–	minimal inhibitory concentration (MIC) [1]: 1.56 µg/mL (≈ 4.26 µM)

More lines, main results first:

MIC [1]	MIC [2]	MIC (Proteus mirabilis 18)	MIC (Proteus mirabilis 1)	SMILES	other results
0.39 µg/mL (≈ 0.877 µM)	1.56 µg/mL (≈ 3.51 µM)	–	–	C=CC1=C(C(=O)O)N2C(=O)C(NC(=O)Cc3cnc(NS(C)(=O)=O)s3)[C@H]2SC1 (stereo partly shown) [Compound F, 7-[2-(2-Methanesulfonamidothiazol-5-yl)acetamido]-3-vinyl-3-cephem-4-carboxylic acid]	–
–	–	0.05 µg/mL (≈ 0.102 µM)	0.2 µg/mL (≈ 0.41 µM)	C=CC1=C(C(=O)O)N2C(=O)C(NC(=O)/C(=N\OCC(=O)O)c3nc(N)sc3Cl)C2SC1 (stereo not drawn) [Compound N, 7-[2-(2-Amino-5-chlorothiazol-4-yl)-2-carboxymethoxyiminoacetamido]-3-vinyl-3-cephem-4-carboxylic acid (syn isomer)]	MIC (Proteus vulgaris 2): 0.05 µg/mL (≈ 0.102 µM)
0.78 µg/mL (≈ 1.84 µM)	1.56 µg/mL (≈ 3.68 µM)	–	–	C=CC1=C(C(=O)O)N2C(=O)C(NC(=O)/C(=N\OCC)c3csc(N)n3)C2SC1 (stereo not drawn) [Compound J, 7-[2-(2-Aminothiazol-4-yl)-2-ethoxyiminoacetamido]-3-vinyl-3-cephem-4-carboxylic acid (syn isomer)]	–
0.78 µg/mL (≈ 2.04 µM)	1.56 µg/mL (≈ 4.08 µM)	–	–	C=CC1=C(C(=O)O)N2C(=O)C(NC(=O)C(O)c3csc(N)n3)[C@H]2SC1 (stereo partly shown) [Compound C, 7-[2-(2-Aminothiazol-4-yl)glycolamido]-3-vinyl-3-cephem-4-carboxylic acid]	–
0.78 µg/mL (≈ 1.63 µM)	1.56 µg/mL (≈ 3.25 µM)	–	–	C=CC1=C(C(=O)O)N2C(=O)C(NC(=O)/C(=N\OCCCCCC)c3csc(N)n3)C2SC1 (stereo not drawn) [Compound K, 7-[2-(2-Aminothiazol-4-yl)-2-hexyloxyiminoacetamido]-3-vinyl-3-cephem-4-carboxylic acid (syn isomer)]	–
0.05 µg/mL (≈ 0.136 µM)	0.78 µg/mL (≈ 2.13 µM)	–	–	C=CC1=C(C(=O)O)N2C(=O)C(NC(=O)Cc3cnc(N)s3)[C@H]2SC1 (stereo partly shown) [Compound E, 7-[2-(2-Aminothiazol-5-yl)acetamido]-3-vinyl-3-cephem-4-carboxylic acid]	–
0.1 µg/mL	0.39 µg/mL	–	–	Br.C=CC1=C(C(=O)O)N2C(=O)C(NC(=O)Cc3csc(NC(=N)N)n3)[C@H]2SC1 (stereo partly shown) [Compound G, 7-[2-(2-Guanidinothiazol-4-yl)acetamido]-3-vinyl-3-cephem-4-carboxylic aci d hydrobromide]	–
